Reference: patent US20100173865A1, “Anti-Cancer Agent-Hyaluronic Acid Conjugate Compositions and Methods” (priority 2007, published 2010)

Assays:
[1] = test system: CD31/PECAM (microvessel density); assay: Microvessel density by CD31 staining of tumor sections; type: in vivo, nude mice; settings: weekly i.v. injections
Experimental: Frozen tissues were sectioned into 8- to 10-μm slices and used for detection of CD31/platelet/endothelial cell adhesion molecule 1 (CD31/PECAM). The slices were mounted on positively charged Plus slides (Fisher Scientific, Pittsburgh, Pa.) and air-dried for 30 minutes; fixed sequentially in cold acetone (5 minutes), 1:1 acetone/chloroform (v/v; 5 minutes), and acetone (5 minutes), and then washed with PBS. Immunohistochemical procedures were done as described previously with the primary antibody diluted 1:400. Peroxidase-conjugated secondary antibody was used for immunohistochemical analysis of CD31/PECAM. Bleaching of fluorescence was minimized by covering the slides with 90% glycerol and 10% PBS. The slides were incubated with stable 3,3′-diaminobenzidine for 10 to 20 minutes and then examined for the presence of CD31/PECAM. The sections were rinsed with distilled water, counterstained with Gill's hematoxylin for 1 minute, and mounted with Universal Mount (Research Genetics, Huntsville, Ala.).
To quantify microvessel density (MVD), areas containing higher numbers of tumor-associated blood vessels were identified at low microscopic power (100×). Vessels completely stained with anti-CD31 antibodies were counted in three random 0.04-mm^2 fields per slide at 200× magnification.

[2] = test system: NMP-1 xenografts; assay: NMP-1 orthotopic (intraperitoneal) ovarian carcinoma xenograft, survival and MR imaging; type: in vivo, nude mice; settings: for T/C / Mean Day of Survival/Sacrifice: qd7 × 3 i.p. from Day 7; for Mean Day of Survival/Sacrifice: mean ± SEM
Experimental: On Day 0, about 1×10^7 viable NMP-1 cells were injected into the peritoneal cavities of groups of 6 to 9-week-old female nude mice (Harlan Sprague Dawley, Indianapolis, Ind.). Five or more mice per experimental group were used as the basis for statistical analyses. Administration of drugs was initiated 1 week later (Day 7). […] NMP-1-implanted mice develop marked ascites as one of the earliest clinical signs of peritoneal tumor and before other aspects of tumor progression are apparent; ascitic fluid was repeatedly removed at intervals from mice, beginning around the fourth week. […] For any tumor-bearing mice that succumbed between daily observations and before the opportunity to sacrifice them, the day of death was considered to be the day before the date they were discovered as deceased. The day of humane sacrifice/death was recorded for each mouse, and these values were compared among control and treatment groups by paired or unpaired Student's t-tests for the survival analyses.
MRI studies were conducted in the MDACC Small Animal Imaging Facility (SAIF). […] Klostergaard, J., et al., Magnetic Resonance Imaging-Based Prospective Detection of Intraperitoneal Human Ovarian Carcinoma Xenografts Treatment Response, Int J Gynecol Cancer, 2006, 16 Suppl 1:111-7. Respiratory-gated, T2-weighted (TE: 45.0 ms, TR: 1215.6 ms, 0.5 mm thickness, 0.3 mm space between images) coronal images were used for initial evaluation of tumor distribution and growth in these models; images of the abdomens of these mice were acquired using a Bruker 4.7 T, 40 cm Biospec MR scanner (Bruker Biospin USA, Billerica, Mass.).
In the NMP-1 studies, mice were held for survival endpoints. In the SKOV-3ip studies, tumor measurements were performed using the Image J program (National Institutes of Health, USA). Regions of interest (ROI) were drawn on each image that contained tumor and then multiplied by slice thickness to obtain the tumor volume. […] To avoid overestimation of tumor size, one half of the volume from the most dorsal and ventral images containing tumor were used in the volume analysis. Assuming a tumor density of 1 g/ml, tumor volumes (mm^3) were converted to weight (g) for analysis.

[3] = test system: HN5 xenografts; assay: Orthotopic nude mouse model of oral tongue SCC, HN5; type: in vivo, nude mice
[4] = test system: OSC19-luciferase cell line; assay: MTT cell proliferation assay; type: cell-based; settings: Homo sapiens, 72 h, 3-day incubation, read-out: IC50 (growth inhibition, MTT)
Experimental: (§1) To test the ability of paclitaxel and HA-paclitaxel to inhibit the proliferation of all human squamous cancer cell lines in vitro, a 3-(4,5-dimethylthiazol-2-yl)-2,5-diphenyltetrazolium bromide (MTT) assay was used. Two thousand cells per well were grown in DMEM medium supplemented with 10% FBS in 96-well tissue culture plates. After 24 h, the cells were treated with various concentrations of paclitaxel or HA-paclitaxel in DMEM medium supplemented with 2% FBS. To measure the number of metabolically active cells after a 3-day incubation period, an MTT assay as measured by a 96-well microtiter plate reader (MR-5000; Dynatech Laboratories Inc, Chantilly, Va.) at an optical density of 570 nm was used.
(§2) Quantified results of PCNA, CD31, and tumor volume were compared with Kruskal-Wallis and Wilcoxon rank-sum test, as appropriate. Survival was analyzed with the Kaplan-Meier method. Differences between the treatment and control groups were compared with the log-rank test. A two-tailed p<0.05 was considered significant.

[5] = test system: HN5 cell line; assay: MTT cell proliferation assay; type: cell-based; settings: Homo sapiens, 72 h, 3-day incubation, read-out: IC50 (growth inhibition, MTT)
Experimental: as §1, §2

[6] = plasma; IP administration; data from Banzato et al.; cited from earlier work
[7] = test system: OSC19-luciferase xenografts; assay: Orthotopic nude mouse model of oral tongue SCC, OSC19-luciferase; type: in vivo, nude mice

In the case of `CC(=O)O[C@H]1C(=O)[C@@]2(C)[C@H]([C@H](OC(=O)c3ccccc3)[C@]3(O)C[C@H](OC(=O)[C@H](O)[C@@H](NC(=O)c4ccccc4)c4ccccc4)C(C)=C1C3(C)C)[C@]1(OC(C)=O)CO[C@@H]1C[C@@H]2O` [Taxol, Paclitaxel], the “Effect on microvessel density (MVD)” value [1] is reported as “no effect on MVD”, the T/C ([2]; 10 mg/kg) is reported as about 105 and the “Mean Day of Survival/Sacrifice” value ([2]; 10 mg/kg) is reported as 32.6 ± 5.6 days. The T/C ([2]; 15 mg/kg) was about 120, the “Mean Day of Survival/Sacrifice” value ([2]; 15 mg/kg) was 37.6 ± 9.3 days and the “Activity by MR imaging and survival criteria” value ([2]; multiple-dose regimens, 10 or 15 mg/kg) was “essentially inactive”. The Median survival time ([3]; 3 weekly i.v. injections, control 26 days) was 40 days, the “Reduction of tumor growth” value ([3]; one week after the last of 3 weekly i.v. treatments, HA-paclitaxel 120 mg/kg paclitaxel equivalent, paclitaxel 10 mg/kg) was 63.8% and the IC50 [4] was 2.16 nM. The IC50 [5] was 4.58 nM, the AUC [6] was 144 µg·h/mL and the Median survival time ([7]; OSC19-luciferase, 3 weekly i.v. injections, control 30 days) was 60 days. For the same compound, the “Reduction of bioluminescence as opposed to control” value ([7]; OSC19-luciferase, one week after the last treatment) was 86.5% and the “Reduction of tumor growth” value ([7]; OSC19, one week after the last of 3 weekly i.v. treatments, HA-paclitaxel 120 mg/kg paclitaxel equivalent, paclitaxel 10 mg/kg) was 64.2%.
